Measured values as given in ChEMBL document CHEMBL1143165, “N-[omega-[4-(2-methoxyphenyl)-1-piperazinyl]alkyl]-2-quinolinamines as high-affinity fluorescent 5-HT1A receptor ligands” (J Med Chem, 2008).
Active and inactive are the calls of the source. The calls are words filed in the database; no cut-off is given here.

What was measured:
[1] = target: T1, 5-hydroxytryptamine receptor 1A (Homo sapiens, UniProt P08908); experiment: Displacement of [3H]8-OH-DPAT from human 5HT1A receptor expressed in HEK293 cells after 120 mins; format: cell-based
T1 sequence (P08908 whole entry): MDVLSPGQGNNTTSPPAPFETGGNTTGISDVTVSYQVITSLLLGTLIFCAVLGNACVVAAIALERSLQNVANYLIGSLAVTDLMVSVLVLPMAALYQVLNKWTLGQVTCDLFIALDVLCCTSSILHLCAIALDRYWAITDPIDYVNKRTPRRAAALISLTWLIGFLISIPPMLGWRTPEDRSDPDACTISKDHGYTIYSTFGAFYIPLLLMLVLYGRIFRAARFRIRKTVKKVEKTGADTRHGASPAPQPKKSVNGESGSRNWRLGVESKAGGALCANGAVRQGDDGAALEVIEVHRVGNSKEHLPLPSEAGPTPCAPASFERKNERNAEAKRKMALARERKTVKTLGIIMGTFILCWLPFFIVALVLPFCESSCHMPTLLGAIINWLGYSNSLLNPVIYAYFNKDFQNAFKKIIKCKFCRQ

[2] = Agonist activity at 5HT1A receptor in guinea pig ileum assessed as inhibition of electrically-stimulated muscle contraction; format: functional, tissue-based; conditions: Cavia porcellus
[3] = Agonist activity at 5HT1A receptor in guinea pig ileum assessed as inhibition of electrically-stimulated muscle contraction relative to baseline; format: functional, Cavia porcellus; set-up: scale not given: the % may be the effect or the level left
[4] = species on record: Cavia porcellus; experiment: Reversal of agonist activity at 5HT1A receptor in guinea pig in presence of 5HT1A antagonist WAY-100635; format: functional

Row | SMILES | Ki [1] [nM] | further results
1 | COc1ccccc1N1CCN(CCCCNc2ccc3cc(C)ccc3n2)CC1 | 0.54 | 
2 | COc1ccc2nc(NCCN3CCN(c4ccccc4OC)CC3)ccc2c1 | 28 | 
3 | COc1ccccc1N1CCN(CCNc2ccc3ccccc3n2)CC1 | 33 | 
4 | COc1ccc2ccc(NCCCN3CCN(c4ccccc4OC)CC3)nc2c1 | 0.2 | 
5 | COc1ccc2nc(NCCCN3CCN(c4ccccc4OC)CC3)ccc2c1 | 22 | 
6 | COc1ccccc1N1CCN(CCNc2ccc3cc([N+](=O)[O-])ccc3n2)CC1 | 14.2 | 
7 | COc1ccc2ccc(NCCCCN3CCN(c4ccccc4OC)CC3)nc2c1 | 4.6 | 
8 | COc1ccccc1N1CCN(CCCNc2ccc3ccccc3n2)CC1 | 13 | 
9 | COc1ccccc1N1CCN(CCCCNc2ccc3ccccc3n2)CC1 | 9.7 | 
10 | COc1ccc2ccc(NCCN3CCN(c4ccccc4OC)CC3)nc2c1 | 2.1 | 
11 | COc1ccc2ccc(NCCCCCN3CCN(c4ccccc4OC)CC3)nc2c1 | 0.5 | 
12 | COc1ccccc1N1CCN(CCCCNc2ccc3cc(N)ccc3n2)CC1 | 0.38 | EC50 [2]: 62100 nM; Activity [3]: 81%
13 | COc1ccc2nc(NCCCCN3CCN(c4ccccc4OC)CC3)ccc2c1 | 0.2 | EC50 [2]: 34400 nM; Activity [4]: Active
14 | COc1ccccc1N1CCN(CCCCCNc2ccc3ccccc3n2)CC1 | 0.03 | 
15 | COc1ccc2nc(NCCCCCN3CCN(c4ccccc4OC)CC3)ccc2c1 | 2.6 | 
